Measured values: US8193171B2, “13,13-dimethyl-des-C,D analogs of 1α,25-dihydroxy-19-nor-vitamin D3 compounds and topical composition dosage forms and methods of treating skin conditions thereof” (Wisconsin Alumni Research Foundation, priority 2008, dated 2012)

What was measured:
Rhino mouse comedones = assay: Comedolytic effect of daily topical application in the Rhino mouse; assay type: in vivo; details: for Comedone Area (% Vehicle): Rhino mouse, topical daily ca. 3 weeks, 70 vol % ethanol / 30 vol % propylene glycol, mean ± SEM, N 6
Excerpt: Rhino mice were used to topically test the compounds and compositions of the invention. The Rhino mouse is a well-established animal model used to study the comedolytic effects of anti-acne agents including retinoids. (See Boulcier M et al., 1990, Experimental Models in Skin Pharmacology, In Pharmacological Reviews 42:127-154). The Rhino mouse model was used to study the therapeutic potential of 13Me2.
Animals and dose administration. Rhino mice were enrolled in the study at 6-8 weeks of age and were dosed daily via the topical route. The mice were weighed three times per week and doses were adjusted weekly based on body weight. The topical formulations were applied to the back of the animal in a maximum volume of 100 μL. The topical formulations were made by mixing the 13Me2 with a topical carrier comprising 70 vol % ethanol and 30 vol % propylene glycol, as indicated. The topical vehicle control was the vehicle carrier solution matched to the formulation containing API and vehicle carrier. Mice were sacrificed 72 hours after the final topical dose. At sacrifice, the dorsal skin was collected for histology studies.
Comedolytic effect. The extent of the comedolytic effect (i.e., efficacy) was assessed by measuring the average area of the comedones, whereby the smaller the area, the larger the effect. The comedone area was determined by histological analysis of tissue sections based upon lab methods. Skin was fixed overnight in 4% paraformaldehyde at 4° C. with gentle agitation, and dehydrated the next day into 100% methanol.
Samples were embedded in paraffin and a total of nine 10μ sections 150μ apart were prepared from each Rhino mouse. Five of the nine sections were digitally imaged (6× magnification) for comedone analysis using Metamorph Imaging Software (trace function). The perimeter of each comedone on the images taken from the 5 sections was then traced using a Wacom Intuos 3 Graphics Tablet interfaced with the software.
The number of pixels comprising the area of each individual comedone was obtained, and the mean number of pixels per comedone was obtained for each Rhino mouse. For comedones that were completely healed (area=0) a pixel value approaching 0 (<10) was scored. The individual comedone area average for each mouse was then used to calculate the treatment group mean. Results in the figures are expressed in terms of mean±standard error of the mean.
Preparation of topical formulations containing 13Me2. A concentrated ethanolic stock of 13Me2 was diluted to a final concentration containing 30 vol % propylene glycol and 70 vol % ethanol as the excipient carrier system. The mixture was thoroughly mixed. The topical dosing formulation delivered a predetermined dosing amount of drug on a per kilogram body weight basis. […]

[1] = biological target: T1, Full-length recombinant rat receptor (vitamin D receptor, VDR) (Rattus norvegicus, UniProt P13053); assay: Competitive vitamin D receptor binding; details: relative to 1.25(OH)2D3; radioligand 3H-1.25(OH)2D3 1 nM
T1 construct: Full-length recombinant rat receptor was expressed in E. coli; histidine tag (C); made in house; host or cells: E. coli BL21(DE3) Codon Plus RIL
T1 sequence (P13053 1-423): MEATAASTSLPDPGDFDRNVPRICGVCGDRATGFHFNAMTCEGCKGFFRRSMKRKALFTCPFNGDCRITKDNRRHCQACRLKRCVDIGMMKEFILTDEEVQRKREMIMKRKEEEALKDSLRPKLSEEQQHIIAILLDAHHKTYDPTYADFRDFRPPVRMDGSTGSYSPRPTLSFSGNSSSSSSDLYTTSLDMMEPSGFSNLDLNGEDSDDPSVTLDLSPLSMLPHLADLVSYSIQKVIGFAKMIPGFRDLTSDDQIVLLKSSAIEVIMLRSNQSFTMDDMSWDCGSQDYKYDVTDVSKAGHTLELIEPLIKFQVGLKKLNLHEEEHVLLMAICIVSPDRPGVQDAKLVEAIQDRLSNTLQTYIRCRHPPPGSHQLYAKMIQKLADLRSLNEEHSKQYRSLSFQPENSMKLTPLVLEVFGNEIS
Procedure: Experimental Methods. […] The first system was a nickel affinity resin that utilizes the C-terminal histidine tag on this protein. The protein that was eluted from this resin was further purified using ion exchange chromatography (S-Sepharose Fast Flow). Aliquots of the purified protein were quick frozen in liquid nitrogen and stored at −80° C. until use. For use in binding assays, the protein was diluted in TEDK50 (50 mM Tris, 1.5 mM EDTA, pH 7.4, 5 mM DTT, 150 mM KCl) with 0.1% Chaps detergent. The receptor protein and ligand concentration was optimized such that no more than 20% of the added radiolabeled ligand was bound to the receptor.
Assay Conditions. […] The hydroxylapaptite was collected by centrifugation and then washed three times with Tris-EDTA buffer (50 mM Tris, 1.5 mM EDTA, pH 7.4) containing 0.5% Titron X-100. After the final wash, the pellets were transferred to scintillation vials containing 4 ml of Biosafe II scintillation cocktail, mixed and placed in a scintillation counter. Total binding was determined from the tubes containing only radiolabeled ligand.

[2] = tested on: Human promyelocytic leukemia (HL-60) cells; assay: HL-60 cell differentiation (nitro blue tetrazolium reduction); assay type: cell-based; details: four days of treatment
Procedure: HL-60 Differentiation. Test Material. Study Drugs. The study drugs were dissolved in ethanol and the concentrations determined using UV spectrophotometry. Serial dilutions were prepared so that a range of drug concentrations could be tested without changing the final concentration of ethanol (<0.2%) present in the cell cultures.
Cells. Human promyelocytic leukemia (HL-60) cells were grown in RPMI-1640 medium containing 10% fetal bovine serum. The cells were incubated at 37° C. in the presence of 5% CO2.
Assay Conditions. HL-60 cells were plated at 1.2×10^5 cells/ml. Eighteen hours after plating, cells in duplicate were treated with drug. Four days later, the cells were harvested and a nitro blue tetrazolium reduction assay was performed. (Collins et al., 1979, J. Exp. Med. 149:969-974). The percentage of differentiated cells was determined by counting a total of 200 cells and recording the number that contained intracellular black-blue formazan deposits. Verification of differentiation to monocytic cells was determined by measuring phagocytic activity (data not shown).

[3] = tested on: 24-hydroxylase (24OHase) gene promoter; assay: In vitro 24-OHase transcription assay (luciferase reporter in ROS 17/2.8 bone cells); assay type: cell-based; details: ROS 17/2.8 cells, sixteen hours after dosing
Procedure: In vitro Transcription Assay. Transcription activity was measured in ROS 17/2.8 (bone) cells that were stably transfected with a 24-hydroxylase (24OHase) gene promoter upstream of a luciferase reporter gene. (Arbour et al., 1998). Cells were given a range of doses. Sixteen hours after dosing the cells were harvested and luciferase activities were measured using a luminometer. RLU=relative luciferase units.

[4] = tested on: intestinal calcium transport; assay: Intestinal calcium transport (everted gut sac method); assay type: in vivo, rat; details: Sprague-Dawley rats, four consecutive intraperitoneal doses
Procedure: (§1) Intestinal Calcium Transport and Bone Calcium Mobilization Activity. Male, weanling Sprague-Dawley rats were placed on Diet 11 (0.47% Ca) diet+AEK oil for one week followed by Diet 11 (0.02% Ca)+AEK oil for 3 weeks. The rats were then switched to a diet containing 0.47% Ca for one week followed by two weeks on a diet containing 0.02% Ca. Dose administration began during the last week on 0.02% calcium diet. Four consecutive intraperitoneal doses were given approximately 24 hours apart. Twenty-four hours after the last dose, blood was collected from the severed neck and the concentration of serum calcium determined as a measure of bone calcium mobilization. The first 10 cm of the intestine was also collected for intestinal calcium transport analysis using the everted gut sac method.

[5] = tested on: bone calcium mobilization; assay: Bone calcium mobilization (serum calcium); assay type: in vivo, rat; details: Sprague-Dawley rats, four consecutive intraperitoneal doses
Procedure: as §1

Structure (SMILES) | Comedone Area (% Vehicle) (Rhino mouse comedones; dose 6.0 nmol/kg) | VDR binding affinity compared to the native hormone [1] | HL-60 differentiation activity relative to 1.25(OH)2D3 [2] | 24-OHase transcription activity relative to 1.25(OH)2D3 [3] | Activity on intestinal calcium transport [4] | Activity on bone calcium mobilization [5] | Comedone area relative to the vehicle-treated group (FIG. 6) (Rhino mouse comedones; Rhino mice, topical 217 nmole/kgBW/day, 3 weeks daily) | Comedone area relative to the vehicle-treated group (FIG. 7) (Rhino mouse comedones; Rhino mice, topical 69 and 217 nmole/kgBW/day, 3 weeks daily) | Comedone Area (% Vehicle) (Rhino mouse comedones; dose 217 nmol/kg)
C=C1/C(=C\C=C2/CCC[C@]3(C)[C@@H]([C@H](C)CCCC(C)(C)O)CC[C@@H]23)C[C@@H](O)C[C@@H]1O [1,25(OH)2D3, 1,25-DIHYDROXYVITAMIN D3, reference compound] | 187 ± 30 % Vehicle | – | – | – | – | – | – | – | –
C=C1[C@H](O)CC(=C/C=C/CC(C)(C)C[C@@H](C)CCCC(C)(C)O)C[C@H]1O [13Me2, (1R,3R)-5-[(E)-(S)-11′-hydroxy-5′,5′,7′,11′-tetramethyl-dodec-2′-enylidene]-2-methylene-cyclohexane-1,3-diol] | – | one log less affinity | lower than 1.25(OH)2D3 by approximately one log | lower than 1.25(OH)2D3 by approximately one log | insignificant activity | insignificant activity | significant reduction in comedone area | dose-dependent reduction in comedone area | 26 ± 3 % Vehicle
